According to article PMC3601116, “Surfactant Protein D Modulates HIV Infection of Both T-Cells and Dendritic Cells” (PLoS ONE, 2013):

Experiments:
[1] = target: T1, Surfactant Protein D (SP-D) (Homo sapiens, UniProt P35247); experiment: SPR competition of SP-D ([…]) binding to immobilised biotinylated gp120 IIIB; settings: 5 mM CaCl2, SP-D in solution, lectin site (CRD), competes with gp120 glycans
T1 construct: gene SFTPD; dodecamer (four trimeric units)
T1 sequence (P35247 21-375): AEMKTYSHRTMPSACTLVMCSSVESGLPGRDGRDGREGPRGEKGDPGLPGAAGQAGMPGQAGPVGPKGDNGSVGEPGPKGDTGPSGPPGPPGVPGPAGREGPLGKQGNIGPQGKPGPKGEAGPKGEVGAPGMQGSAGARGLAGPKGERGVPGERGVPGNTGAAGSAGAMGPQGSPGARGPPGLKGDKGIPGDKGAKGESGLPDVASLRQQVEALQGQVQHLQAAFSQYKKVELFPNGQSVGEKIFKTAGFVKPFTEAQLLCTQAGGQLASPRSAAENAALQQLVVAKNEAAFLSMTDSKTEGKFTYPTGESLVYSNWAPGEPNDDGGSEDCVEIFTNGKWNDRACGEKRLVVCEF

[2] = target: T1, Surfactant Protein D (SP-D); experiment: SPR competition of inactivated HIV BaL particles binding to immobilised SP-D; settings: pH 7.4, calcium, 25 C, lectin site (CRD), competes with HIV glycans
[3] = target: recombinant gp120 IIIB (HIV strain IIIB) (UniProt P04578); experiment: ELISA; competition: gp120 IIIB (2 µg/mL) immobilised; biotinylated soluble DC-SIGN, biotinylated soluble CD4 or CVN added together with SP-D (0-40 µg/mL); absorbance without competitor taken as 100%

OC[C@H]1OC(O)[C@H](O)[C@@H](O)[C@H]1O (stereo partly drawn) [D-galactose]
IC50 ([1]; read-out: IC50): 32.2 mM

CC(=O)N[C@H]1C(O)O[C@H](CO)[C@@H](O)[C@@H]1O (stereo partly drawn) [GlcNAc]
IC50 [1]: 22.9 mM

OC[C@H]1OC(O)[C@H](O)[C@@H](O)[C@@H]1O (stereo partly drawn) [glucose]
IC50 [2]: 5.4 mM

OC[C@H]1O[C@H](O[C@H]2[C@H](O)[C@@H](O)C(O)O[C@@H]2CO)[C@H](O)[C@@H](O)[C@@H]1O (stereo partly drawn) [maltose]
IC50 [1]: 6.5 mM

OC[C@H]1OC(O)[C@@H](O)[C@@H](O)[C@@H]1O (stereo partly drawn) [mannose]
IC50 ([1]; read-out: IC50): 7.8 mM

Surfactant Protein D (from UniProt P35247 21-375) (natural protein)
maximum inhibition of sDC-SIGN binding to gp120 [3]: 80%
